Experiments:
Format in all cases: in vivo
[1] = test system: Lolium multiflorum; experiment: Herbicidal pre-emergence action, LOLMU
Description: (§1) 1. Herbicidal Pre-Emergence Action
(§2) • Seeds of monocotyledonous and dicotyledonous weed plants and crop plants are placed in wood-fiber pots in sandy loam and covered with soil. The test compounds, formulated in the form of wettable powders (WP), are then, as an aqueous suspension with a water application rate of 600 l/ha (converted), with 0.2% of wetting agent added, applied at various dosages to the surface of the covering soil. • After the treatment, the pots are placed in a greenhouse and kept under good growth conditions for the test plants. The visual assessment of the damage to the test plants is carried out after a trial period of about 3 weeks by comparison with untreated controls (herbicidal activity in percent: 100% activity=the plants have died, 0% activity=like control plants). • In addition to the compounds mentioned above, the following compounds show an activity of 90-100% against Alopecurus myosuroides, Digitaria sanguinalis, Echinocloa crus-galli, Lolium multiflorum, Setaria viridis and Sorghum halapense when applied by the pre-emergence method at 320 g/ha of a.i.: I-a-2, I-a-10, I-a-11, I-a-12.
(§3) 1. Herbicidal Pre-Emergence Action (Pre)
(§4) • Seeds of monocotyledonous and dicotyledonous weed plants and crop plants are placed in wood-fiber pots in sandy loam and covered with soil. […]

[2] = test system: Viola tricolor; experiment: Herbicidal pre-emergence action, VIOTR
Description: as §3
(§5) • Seeds of monocotyledonous and dicotyledonous weed plants and crop plants are placed in wood-fiber pots in sandy loam and covered with soil. The test compounds, formulated in the form of wettable powders (WP) or emulsion concentrates (EC), are then, as an aqueous suspension with a water application rate of 600-800 l/ha (converted), with 0.1-0.2% of wetting agent added, applied at various dosages to the surface of the covering soil. • After the treatment, the pots are placed in a greenhouse and kept under good growth conditions for the test plants. […] Herbicidal Post-Emergence Action (Post) • Seeds of monocotyledonous and dicotyledonous weed and crop plants are placed in sandy loam in wood-fiber pots, covered with soil and cultivated in a greenhouse under good growth conditions. 2-3 weeks (stages 10-13 according to the BBCH scale) after sowing, the test plants are treated at a height of 5-10 cm. The test compounds, formulated as wettable powders (WP) or emulsion concentrates (EC), are then, with a water application rate of 600-800 l/ha (converted), with 0.1-0.2% of wetting agent added, sprayed at various dosages onto the green parts of the plants. […]

[3] = test system: Chenopodium album; experiment: Herbicidal pre-emergence action, CHEAL
Description: as §3, §5

[4] = test system: Avena fatua; experiment: Herbicidal pre-emergence action, AVEFA
Description: as §1, §2, §3, §4

[5] = test system: Veronica persica; experiment: Herbicidal pre-emergence action, VERPE
Description: as §3, §5

[6] = test system: Setaria viridis; experiment: Herbicidal pre-emergence action, SETVI; settings: 320 g/ha
Description: as §1, §2, §3
(§6) • Seeds of monocotyledonous and dicotyledonous weed plants and crop plants are placed in wood-fiber pots in sandy loam and covered with soil. The test compounds, formulated in the form of wettable powders (WP) or emulsion concentrates (EC), are then, as an aqueous suspension with a water application rate of 600-800 l/ha (converted), with 0.1-0.2% of wetting agent added, applied at various dosages to the surface of the covering soil. • After the treatment, the pots are placed in a greenhouse and kept under good growth conditions for the test plants. […] Herbicidal Post-Emergence Action (Post) • Seeds of monocotyledonous and dicotyledonous weed and crop plants are placed in sandy loam in wood-fiber pots, covered with soil and cultivated in a greenhouse under good growth conditions. 2-3 weeks (stages 10-13 according to the BBCH scale) after sowing, the test plants are treated at a height of 5-10 cm. The test compounds, formulated as wettable powders (WP) or emulsion concentrates (EC), are then, with a water application rate of 600-800 l/ha (converted), with 0.1-0.2% of wetting agent added, sprayed at various dosages onto the green parts of the plants.
(§7) AVEFA: Avena fatua LOLMU: Lolium multiflorum SETVI: Setaria viridis CHEAL: Chenopodium album VIOTR: Viola tricolor VERPE: Veronica persica ORYSA: Oryza sativa TRZAS: Triticum aestivum ZEAMX: Zea mays ALOMY: Alopecurus myosuroides DIGSA: Digitaria sanguinalis ECHCG: Echinocloa crus-galli SORHA: Sorghum halepense AVESA: Avena sativa AMARE: Amaranthus retroflexus SINAL: Sinapis alba STEME: Stellaria media

[7] = test system: Setaria viridis; experiment: Herbicidal post-emergence action, SETVI
Procedure: (§8) 2. Herbicidal Post-Emergence Action
(§9) • Seeds of monocotyledonous and dicotyledonous weed and crop plants are placed in sandy loam in wood-fiber pots, covered with soil and cultivated in a greenhouse under good growth conditions. 2 to 3 weeks after sowing, the test plants are treated at the one-leaf stage. The test compounds, formulated as wettable powders (WP), are then, with a water application rate of 600 l/ha (converted), with 0.2% of wetting agent added, sprayed at various dosages onto the green parts of the plants. After the test plants have been kept in the greenhouse under optimum growth conditions for about 3 weeks, the activity of the preparations is rated visually in comparison to untreated controls (herbicidal activity in percent: 100% activity=the plants have died, 0% activity=like control plants). • In addition to the compounds mentioned above, the following compounds show an activity of 90-100% against Alopecurus myosuroides, Avena fatua, Digitaria sanguinalis, Echinocloa crus-galli, Lolium multiflorum, Setaria viridis and Sorghum halapense when applied by the post-emergence method at 320 g/ha: I-a-2, I-a-4, I-a-5, I-a-7, I-a-9, I-a-10, I-a-11, I-a-12, I-a-13, I-a-15. • In addition to the compounds mentioned above, the following compounds show an activity of 90-100% against Alopecurus myosuroides, Avena fatua, Echinocloa crus-galli, Lolium multiflorum and Setaria viridis when applied by the post-emergence method at 80 g/ha: I-a-1, I-b-2.
as §6, §7

[8] = test system: Myzus persicae; experiment: Myzus test (MYZUPE spray treatment); settings: application rate 500 g/ha, after 5 days, Chinese cabbage leaf discs
Procedure: Myzus Test (MYZUPE Spray Treatment) [table] To produce a suitable preparation of active compound, 1 part by weight of active compound is mixed with the stated amount of solvent and emulsifier, and the concentrate is diluted with emulsifier-containing water to the desired concentration. Discs of Chinese cabbage (Brassica pekinensis) infected by all stages of the green peach aphid (Myzus persicae) are sprayed with an active compound preparation of the desired concentration. After 5 days, the effect in % is determined 100% means that all of the aphids have been killed; 0% means that none of the aphids have been killed. Myzus Test (MYZUPE Spray Treatment) To produce a suitable preparation of active compound, 1 part by weight of active compound is mixed with the stated amount of solvent and emulsifier, and the concentrate is diluted with emulsifier-containing water to the desired concentration. Discs of Chinese cabbage (Brassica pekinensis) infected by all stages of the green peach aphid (Myzus persicae) are sprayed with an active compound preparation of the desired concentration. After the desired period of time, the activity in % is determined. 100% means that all of the aphids have been killed; 0% means that none of the aphids have been killed.

[9] = test system: Stellaria media; experiment: Herbicidal post-emergence action, STEME; settings: 320 g/ha
Description: as §5

[10] = test system: Amaranthus retroflexus; experiment: Herbicidal post-emergence action, AMARE; settings: 320 g/ha
Description: as §5

[11] = test system: Lolium multiflorum; experiment: Herbicidal post-emergence action, LOLMU
Procedure: as §8, §9, §6, §7

[12] = test system: Avena sativa; experiment: Herbicidal post-emergence action, AVESA; settings: 320 g/ha
Description: as §5

[13] = test system: Sinapis alba; experiment: Herbicidal post-emergence action, SINAL; settings: 320 g/ha
Description: as §5

[14] = test system: Digitaria sanguinalis; experiment: Herbicidal post-emergence action, DIGSA; settings: 80 g/ha
Procedure: as §8, §9, §6, §7

[15] = test system: Avena fatua; experiment: Herbicidal post-emergence action, AVEFA; settings: 80 g/ha
Procedure: as §8, §9, §6, §7

[16] = test system: Triticum aestivum; experiment: Herbicidal post-emergence action, TRZAS; settings: 80 g/ha
Description: as §6, §7

[17] = test system: Oryza sativa; experiment: Herbicidal post-emergence action, ORYSA; settings: 80 g/ha
Description: as §6, §7

[18] = test system: Zea mays; experiment: Herbicidal post-emergence action, ZEAMX; settings: 80 g/ha
Description: as §6, §7

[19] = test system: Veronica persica; experiment: Herbicidal post-emergence action, VERPE; settings: 80 g/ha
Description: as §5

[20] = test system: Sorghum halepense; experiment: Herbicidal post-emergence action, SORHA; settings: 80 g/ha
Procedure: as §8, §9, §6, §7

[21] = test system: Echinocloa crus-galli; experiment: Herbicidal post-emergence action, ECHCG; settings: 80 g/ha
Procedure: as §8, §9, §6, §7

[22] = test system: Alopecurus myosuroides; experiment: Herbicidal post-emergence action, ALOMY; settings: 80 g/ha
Procedure: as §8, §9, §6, §7

Compound: CCc1cc(Cl)cc(Cl)c1C1=C(OC(=O)C(C)(C)C)C2(CCC(C)CC2)NC1=O (stereo not drawn) [I-b-12 known from WO 04/065366]
- inhibition at 320 g/ha ([1]; Lolium multiflorum, pre-emergence): 40%
- inhibition at 320 g/ha ([2]; Viola tricolor, pre-emergence): 0%
- inhibition at 320 g/ha ([3]; Chenopodium album, pre-emergence): 0%
- inhibition at 320 g/ha ([4]; Avena fatua, pre-emergence): 0%
- inhibition at 320 g/ha ([5]; Veronica persica, pre-emergence): 0%
- inhibition at 320 g/ha ([6]; Setaria viridis, pre-emergence): 40%

Compound: CCc1cc(Cl)cc(OC)c1C1=C(OC(=O)C(C)(C)C)NC2(CCC(OC)CC2)C1=O (stereo not drawn) [I-a-9]
- % Activity SETVI ([7]; 320 g/ha): 100%
- effect in % (aphids killed) [8]: 80%
- % Activity STEME [9]: 40%
- % Activity AMARE [10]: 40%
- % Activity LOLMU ([11]; 320 g/ha): 100%
- % Activity AVESA [12]: 90%
- % Activity SINAL [13]: 60%

Compound: CCc1cc(Cl)cc(Cl)c1C1=C(OC(=O)C(C)(C)C)NC2(CCC(C)CC2)C1=O (stereo not drawn) [I-a-4]
- % Activity LOLMU ([1]; 320 g/ha): 100%
- % Activity SETVI ([7]; 80 g/ha): 100%
- % Activity VIOTR ([2]; 320 g/ha): 70%
- % Activity CHEAL ([3]; 320 g/ha): 50%
- % Activity DIGSA [14]: 100%
- % Activity AVEFA ([4]; 320 g/ha): 50%
- % Activity VERPE ([5]; 320 g/ha): 40%
- % Activity AVEFA [15]: 100%
- % Activity TRZAS [16]: 100%
- % Activity SETVI [6]: 90%
- % Activity ORYSA [17]: 100%
- % Activity ZEAMX [18]: 100%
- % Activity VERPE [19]: 60%
- % Activity SORHA [20]: 100%
- % Activity LOLMU ([11]; 80 g/ha): 100%
- % Activity ECHCG [21]: 100%
- % Activity ALOMY [22]: 100%

From US9204640B2, “2-acyloxy-pyrrolin-4-ones” (BAYER INTELLECTUAL PROPERTY GMBH, priority 2011, dated 2015)
